The values that follow come from patent publication US20240239788A1, “SMALL MOLECULE INHIBITORS OF KRAS G12D MUTANT” (Merck Sharp & Dohme LLC, priority 2021, published 2024).

Structures can show the parent of a compound that is named as a salt.

This test concerns the target KRAS protein containing G12D mutation (Homo sapiens (Human), UniProt P01116, G12D). Description: SOS-catalyzed nucleotide exchange assay (GNE), TR-FRET. The settings on record: biotinylated KRAS G12D, SOS and GTP, 60-minute incubation. Format: biochemical. As to the method:
Compounds are added to this complex and then after a 60-minute incubation time the mixture is treated with SOS and unlabeled GTP. Small molecule inhibitors stabilize the Bodipy-GDP complex whereas the untreated protein rapidly exchanges Bodipy-GDP for unlabeled GTP resulting in reduced TR-FRET signal.
This solution is referred to as biotinylated KRAS G12D stock solution.

Chain of KRAS protein containing G12D mutation (P01116 other isoform, or with tags, fused parts or gaps G12D (already in the parent)): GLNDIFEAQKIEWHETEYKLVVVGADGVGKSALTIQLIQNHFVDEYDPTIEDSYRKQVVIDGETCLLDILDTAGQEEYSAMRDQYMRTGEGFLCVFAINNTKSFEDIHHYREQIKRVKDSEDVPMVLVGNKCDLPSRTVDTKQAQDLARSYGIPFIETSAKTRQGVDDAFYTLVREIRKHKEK

Consider `CN(C)C[C@@]1(COc2nc(N3C[C@H]4CC[C@@H](C3)N4)c3cc(F)c(-c4c(C(F)(F)F)c(Cl)cc5cnn(C)c45)c(F)c3n2)CC1(F)F` (single isomer, unassigned) [201a], for which half-maximal inhibition (IC50) required 11100 nM.
In the case of `C#Cc1c(F)ccc2ccc(F)c(-c3c(F)cc4c(N5CC6CC[C@@](C)(C5)N6)nc(OC[C@@]56CCCN5C[C@H](F)C6)nc4c3F)c12` (single isomer, unassigned) [246a] it was 41.3 nM; in that of `C#Cc1c(F)ccc2ccc(F)c(-c3c(F)cc4c(N5CC6CC[C@@](C)(C5)N6)nc(OC[C@@]56CCCN5C[C@H](F)C6)nc4c3F)c12` (single isomer, unassigned) [246b], 165 nM; in that of `Cc1cc(N)nc(-c2c(Cl)cc3c(N4CC5CC(O)C(C4)N5)nc(OC[C@@]45CCCN4C[C@H](F)C5)nc3c2F)c1C(F)(F)F` (single isomer, unassigned) [249a], 351 nM.
Turning to `Cc1nc2[nH]nc(C)c2c(-c2c(F)cc3c(N4C[C@H]5CC[C@@H](C4)N5)nc(OC[C@@]45CCCN4C[C@H](F)C5)nc3c2F)c1C(F)(F)F` (single isomer, unassigned) [250a], the IC50 – broadly, the concentration that gives 50% inhibition – was determined as 400 nM.
Take `C#Cc1c(F)ccc2cc(N)nc(-c3c(F)cc4c(N5C[C@H]6CC[C@@H](C5)N6)nc(OC[C@@]56CCCN5C[C@H](F)C6)nc4c3F)c12` (single isomer, unassigned) [252b]: the IC50 came out at 204 nM. This IC50 is about 2-fold lower than that of the compound before.
Next, `CNc1cc(C)c(C(F)(F)F)c(-c2c(F)cc3c(N4CC5CCC(C4)N5)nc(OCC4(CN5CCOCC5)CC4)nc3c2F)n1` (single isomer, unassigned) [Ex. 137a]: 1610 nM; `CNc1cc(C)c(C(F)(F)F)c(-c2c(F)cc3c(N4CC5CCC(C4)N5)nc(OCC4(CN5CCOCC5)CC4)nc3c2F)n1` (single isomer, unassigned) [Ex. 137b]: 4820 nM; `Cc1nc(N)cc(-c2c(F)cc3c(N4C[C@H]5CC[C@@](C)(C4)N5)nc(OCC4(CN5CCOCC5)CC4)nc3c2F)c1C(F)(F)F` (single isomer, unassigned) [Ex. 139a]: 1670 nM.
Turning to `Cc1nc(N)cc(-c2c(F)cc3c(N4C[C@H]5CC[C@@](C)(C4)N5)nc(OCC4(CN5CCOCC5)CC4)nc3c2F)c1C(F)(F)F` (single isomer, unassigned) [Ex. 139b], half-maximal inhibition (IC50) required 287 nM.
In turn, `Cc1cc(N)c(F)c(-c2c(F)cc3c(N4CC5CCC(C4)N5)nc(OC[C@@]45CCCN4C[C@H](F)C5)nc3c2F)c1C(F)(F)F` (single isomer, unassigned) [Ex. 146b] gave a half-inhibitory concentration (IC50) of 25.2 nM.
On to `Nc1cc(Cl)c(C(F)(F)F)c(-c2c(Cl)cc3c(N4CC5CCC(C4)N5)nc(OC[C@@]45CCCN4C[C@H](F)C5)nc3c2F)n1` (single isomer, unassigned) [Ex. 154b], for which the half-inhibitory concentration (IC50) was 381 nM.
Turning to `Nc1cc(-c2c(Cl)cc3c(N4CC5CCC(C4)N5)nc(OC[C@@]45CCCN4C[C@H](F)C5)nc3c2F)c(C(F)(F)F)c(Cl)n1` (single isomer, unassigned) [Ex. 155a], the IC50 is 330 nM.
Regarding `Cc1nc(N)c(C#N)c(-c2c(F)cc3c(N4CC5CCC(C4)N5)nc(OC[C@@]45CCCN4C[C@H](F)C5)nc3c2F)c1C(F)(F)F` (single isomer, unassigned) [Ex. 156a], the IC50 amounted to 14 nM.
Compound `Cc1nc(N)c(C#N)c(-c2c(F)cc3c(N4CC5CCC(C4)N5)nc(OC[C@@]45CCCN4C[C@H](F)C5)nc3c2F)c1C(F)(F)F` (single isomer, unassigned) [Ex. 156b] showed an IC50 of 554 nM.
The compound `Cc1cc(N)nc(-c2c(Cl)cc3c(N4CC5CCC(C4)N5)nc(OC[C@@]45CCCN4C[C@H](F)C5)nc3c2F)c1CC(F)(F)F` (single isomer, unassigned) [Ex. 157a] came in with an IC50 of 113 nM.
As to `Cc1cc(N)nc(-c2c(Cl)cc3c(N4CC5CCC(C4)N5)nc(OC[C@@]45CCCN4C[C@H](F)C5)nc3c2F)c1CC(F)(F)F` (single isomer, unassigned) [Ex. 157b], half-maximal inhibition (IC50) was put at 2940 nM.
For the compound `C#Cc1cccc2cc(O)cc(-c3c(F)cc4c(N5C[C@H]6CC[C@@](C)(C5)N6)nc(OC)nc4c3F)c12` (single isomer, unassigned) [Ex. 171b, TFA], the IC50 came to 3470 nM.
In the case of `C[C@]12CCC(CN(c3nc(OCC45CCCN4CC(C(F)F)C5)nc4c(F)c(-c5cc(O)cc6cccc(Cl)c56)c(F)cc34)C1)N2` (single isomer, unassigned) [Ex. 173-2b] it was 2230 nM.
Compound `C[C@@]12CC[C@H](CN(c3nc(OC[C@@]45CCCN4C[C@H](F)C5)nc4c(F)c(-c5cc(O)c(Cl)c6cccc(Cl)c56)c(F)cc34)C1)N2` (single isomer, unassigned) [Ex. 174a] gave an IC50 of 3130 nM. This IC50 and that of the compound before are within 1.5-fold of each other.
In the case of `C[C@@]12CC[C@H](CN(c3nc(OC[C@@]45CCCN4C[C@H](F)C5)nc4c(F)c(-c5cc(O)c(Cl)c6cccc(Cl)c56)c(F)cc34)C1)N2` (single isomer, unassigned) [Ex. 174b], the IC50 amounted to 1000 nM.
For the compound `C[C@]12CCC(CN(c3nc(OC[C@@H]4CC[C@H]5CC(F)(F)CCN45)nc4c(F)c(-c5cc(O)cc6cccc(Cl)c56)c(F)cc34)C1)N2` (single isomer, unassigned) [Ex. 175b], the IC50 stood at 11100 nM. Against the preceding compound, the IC50 is about 11-fold higher.
Regarding `Cc1cccc2cc(O)cc(-c3c(F)cc4c(N5CC6CC[C@@](C)(C5)N6)nc(OC[C@@]56CCCN5C[C@H](F)C6)nc4c3F)c12` (single isomer, unassigned) [Ex. 179a], the IC50 is 5.07 nM.
The compound `Cc1cccc2cc(O)cc(-c3c(F)cc4c(N5CC6CC[C@@](C)(C5)N6)nc(OC[C@@]56CCCN5C[C@H](F)C6)nc4c3F)c12` (single isomer, unassigned) [Ex. 179b] registered an IC50 of 727 nM.
Take `C[C@]12CCC(CN(c3nc(OC[C@@]45CCCN4C[C@H](F)C5)nc4c(F)c(-c5cc(O)cc6cccc(C(F)F)c56)c(F)cc34)C1)N2` (single isomer, unassigned) [Ex. 181a]: the IC50 was 3.97 nM. Against the preceding compound, the IC50 is about 180-fold lower.
In turn, `C[C@]12CCC(CN(c3nc(OC[C@@]45CCCN4C[C@H](F)C5)nc4c(F)c(-c5cc(O)cc6cccc(C(F)F)c56)c(F)cc34)C1)N2` (single isomer, unassigned) [Ex. 181b] had a concentration for half-maximal inhibition (IC50) of 141 nM.
`C[C@]12CCC(CN(c3nc(OC[C@@]45CCCN4C[C@H](F)C5)nc4c(F)c(-c5cc(Cl)cc6cccc(Cl)c56)c(F)cc34)C1)N2` (single isomer, unassigned) [Ex. 184] registered a concentration for half-maximal inhibition (IC50) of 4720 nM.
Next, `Nc1cc2cccc(Cl)c2c(-c2c(F)cc3c(N4CC5CCC(C4)N5)nc(OC[C@@]45CCCN4C[C@H](F)C5)nc3c2F)n1` (single isomer, unassigned) [Ex. 189b]: 11100 nM; `Cc1cc(N)nc(-c2c(F)cc3c(N4CC5CC[C@@](C)(C4)N5)nc(OC[C@@]45CCCN4C[C@H](F)C5)nc3c2F)c1C(F)(F)F` (single isomer, unassigned) [Ex. 200b]: 1130 nM; `CC(O)(COc1nc(N2CC3CC[C@@](C)(C2)N3)c2cc(F)c(-c3cc(O)cc4cccc(Cl)c34)c(F)c2n1)CN1CC[C@@H](F)C1` (single isomer, unassigned) [Ex. 210]: 2150 nM.
In the case of `C#Cc1cccc2cccc(-c3c(F)cc4c(N5CC6CC[C@@](C)(C5)N6)nc(OC[C@@]56CCCN5C[C@H](F)C6)nc4c3F)c12` (single isomer, unassigned) [Ex. 211a] it was 2080 nM.
For the compound `C[C@]12CCC(CN(c3nc(OC[C@]4(CNCC(F)F)CC4(F)F)nc4c(F)c(-c5cc(O)cc6cccc(Cl)c56)c(F)cc34)C1)N2` (single isomer, unassigned) [Ex. 221], inhibition was half-maximal at 1110 nM (IC50). This IC50 is about 1.9-fold lower than that of the compound before.
`Cc1cc2[nH]nc(C)c2c(-c2c(F)cc3c(N4CC5CCC(C4)N5)nc(OC[C@@]45CCCN4C[C@H](F)C5)nc3c2F)c1OC(F)F` (single isomer, unassigned) [Ex. 233a] yielded an IC50 of 1070 nM. This IC50 and that of the compound before are within 1.5-fold of each other.
In the case of `Cc1cc2[nH]nc(C)c2c(-c2c(F)cc3c(N4CC5CCC(C4)N5)nc(OC[C@@]45CCCN4C[C@H](F)C5)nc3c2F)c1OC(F)F` (single isomer, unassigned) [Ex. 233b], the IC50 turned out to be 6.11 nM.
As to `C[C@]12CC[C@H](CN(c3nc(OCC45CCCN4CCC(F)(F)C5)nc4c(F)c(-c5cc(O)cc6cccc(Cl)c56)c(F)cc34)C1)N2` (single isomer, unassigned) [Example 116a], the IC50 amounted to 2890 nM.
In turn, `Cc1cc2[nH]ncc2c(-c2c(F)cc3c(N4CC5CCC(C)(C4)N5)nc(OCC4(CN5CCOCC5)CC4)nc3c2F)c1OC(F)(F)F` (stereo in doubt) [Ex. 125, 4-((1-(((6,8-difluoro-7-(6-methyl-5-(trifluoromethoxy)-1H-indazol-4-yl)-4-((1S,5R)-1-methyl-3,8-diazabicyclo[3.2.1]octan-3-yl)quinazolin-2-yl)oxy)methyl)cyclopropyl)methyl) morpholine] returned an IC50 of 148 nM.
In turn, `Cc1cc2cnn(C)c2c(-c2c(F)cc3c(N4C[C@H]5CC[C@@H](C4)N5)nc(OC[C@@]45CCCN4C[C@H](F)C5)nc3c2F)c1C(F)(F)F` [251a, 4-((1R,5S)-3,8-diazabicyclo[3.2.1]octan-3-yl)-7-(1,5-dimethyl-6-(trifluoromethyl)-1H-indazol-7-yl)-6,8-difluoro-2-(((2R, 7aS)-2-fluorotetrahydro-1H-pyrrolizin-7a(5H)-yl)methoxy)quinazoline] had an IC50 of 5.15 nM.
Next, `Cc1cc2cn(C)nc2c(-c2c(F)cc3c(N4C[C@H]5CC[C@@H](C4)N5)nc(OC[C@@]45CCCN4C[C@H](F)C5)nc3c2F)c1C(F)(F)F` [251b, 4-((1R,5)-3,8-diazabicyclo[3.2.1]octan-3-yl)-7-(2,5-dimethyl-6-(trifluoromethyl)-2H-indazol-7-yl)-68-difluoro-2-(((2R,7aS)-2-fluorotetrahydro-1H-pyrrolizin-7a(5H)-yl)methoxy)quinazoline]: 935 nM; `C[C@]12CC[C@H](CN(c3nc(OC[C@@]45CCCN4C[C@H](F)C5)nc4c(F)c(-c5cccn6cccc56)c(F)cc34)C1)N2` [Ex. 130, 6,8-difluoro-2-(((2R,7aS)-2-fluorotetrahydro-1H-pyrrolizin-7a(5H)-yl)methoxy)-7-(indolizin-8-yl)-4-((1S,5R)-1-methyl-3,8-diazabicyclo[3.2.1]octan-3-yl)quinazoline, 2TFA]: 4190 nM.
